Experiments:
[1] = system: THP1-Dual cells, NF-κB pathway (SEAP); assay: THP-1 Dual cell SEAP assay (L18-MDP stimulated); type: cell-based; conditions: Homo sapiens, 10 ng/mL L18-MDP, 20-24 h, SEAP readout, read-out: IFNγ THP1 IC50
How it was run: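 IC50 values come from non-linear fits of % inhibition of SEAP, measured as QUANTI-Blue optical density (620-655 nm, 2 h) in media-blanked supernatants. These were taken from THP1-Dual cells treated with compound for 30 min before overnight exposure to 10 ng/mL L18-MDP final at 37 °C.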

[2] = target: T1, GST-RIPK2 fusion protein (human RIPK2 amino acids 1-310) (Homo sapiens, UniProt O43353); assay: RIPK2 binding competition assay (TR-FRET, Tracer 199); conditions: displacement of Tracer 199 (10 nM), 45 min at 22° C.
T1 construct: made in house; host or cells: baculovirus-infected Sf9 cells
T1 sequence (O43353 1-310): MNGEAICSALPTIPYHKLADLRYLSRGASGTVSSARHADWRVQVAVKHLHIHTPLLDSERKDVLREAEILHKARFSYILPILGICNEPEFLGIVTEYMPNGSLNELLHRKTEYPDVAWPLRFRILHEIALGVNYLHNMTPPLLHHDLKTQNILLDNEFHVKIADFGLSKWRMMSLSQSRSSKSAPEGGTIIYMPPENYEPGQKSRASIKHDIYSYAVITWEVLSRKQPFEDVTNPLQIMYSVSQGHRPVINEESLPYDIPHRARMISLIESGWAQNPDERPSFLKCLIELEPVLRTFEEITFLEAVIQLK
Excerpt: The ability of selected compounds of Formulas (I) and (II) to inhibit the binding of an Alexa647-labelled ATP-competitive kinase inhibitor to a GST-RIPK2 fusion protein was quantified employing the TR-FRET-based RIPK2 binding competition assay as described in the following paragraphs.
Recombinant fusion protein of N-terminal Glutathione-S-Transferase (GST) and a fragment of human RIPK2 (amino acids 1-310 of accession number 043353), expressed in baculovirus infected Sf9 cells, purified via glutathione affinity chromatography, was used as GST-RIPK2 fusion protein. Tracer 199 from Life Technologies (catalogue no. PR9115B) was used as Alexa647-labelled ATP-competitive kinase inhibitor.
For the assay, 50 nL of a 100-fold concentrated solution of each test compound in DMSO was pipetted into either a black low volume 384-well microtiter plate or a black 1536-well microtiter plate (both Greiner Bio-One, Frickenhausen, Germany), 3 μL solution of Tracer 199 (16.7 nM=>final concentration in 5 μL assay volume is 10 nM) in aqueous assay buffer (25 mM Tris/HCl pH 7.5, 10 mM magnesium chloride (MgCl2), 5 mM β-glycerophosphate, 2.5 mM dithiothreitol (DTT), 0.5 mM ethylene glycol-bis(2-aminoethylether)-N,N,N′,N′-tetraacetic acid (EGTA), 0.5 mM sodium ortho-vanadate, 0.01% (w/v) bovine serum albumin (BSA), 0.005% (w/v) Pluronic F-127 (Sigma)) were added. Then the binding competition was started by the addition of 2 μL of a solution of the GST-RIPK2 fusion protein (2.5 nM=>final conc. in the 5 μL assay volume is 1 nM) and of Anti-GST-Tb (1.25 nM=>final conc. in the 5 μL assay volume is 0.5 nM), a Lumi4®—Tb cryptate-conjugated anti-GST antibody from PerkinElmer (catalogue no 61GSTTAH), in assay buffer.
The resulting mixture was incubated 45 min at 22° C. to allow the formation of a complex between the Tracer 199, the fusion protein and Anti-GST-Tb. Subsequently, the amount of this complex was evaluated by measurement of the resonance energy transfer from the Tb-cryptate to the Tracer 199. Therefore, the fluorescence emissions at 620 nm and 665 nm after excitation at 337 nm were measured in a TR-FRET reader, e.g. a Pherastar FS(BMG Labtechnologies, Offenburg, Germany) or a Viewlux (PerkinElmer). The ratio of the emissions at 665 nm and at 620 nm was taken as the measure of the amount of the complex. The data were normalized (assay reaction without inhibitor=0% activity, all other assay components but no GST-RIPK2 fusion protein=−100% activity).

RIPK2 (KD)/XIAP (BIR2) = target: T2, RIPK2 (KD)/XIAP (BIR2) (Homo sapiens, UniProt O43353); assay: RIPK2-XIAP binding competition PPI assay (TR-FRET); conditions: for Emax: 50 nM of GSK583 = -100% activity, read-out: PPI Amax; for IC50: GST-RIPK2 / His-XIAP (BIR2)-avi, 120 min at 23° C.
T2 construct: made in house; host or cells: baculovirus-infected Sf9 cells
T2 sequence (O43353 1-310): as above
How it was run: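 After 2 h at 23 °C, complex formation was read as the 665/520 nm emission ratio (337 nm excitation), scaled between uninhibited reaction and 50 nM GSK583. The mix held 1 nM human RIPK2 kinase fragment-GST, 25 nM His-tagged XIAP BIR2 and Tb/XL665 antibodies in pH 7.5 Tris buffer containing vanadate and glycerophosphate.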

Compound | IC50 [1] [µM] | IC50 [2] [µM] | Emax (RIPK2 (KD)/XIAP (BIR2)) [%] | IC50 (RIPK2 (KD)/XIAP (BIR2)) [µM]
COc1cc2ncc(-n3cc(NC(=O)Cc4ccc(F)cc4Cl)cn3)n2cc1S(=O)(=O)C(C)(C)C [Example 158, N-(1-(6-(tert-butylsulfonyl)-7-methoxyimidazo[1,2-a]pyridin-3-yl)-1H-pyrazol-4-yl)-2-(2-chloro-4-fluorophenyl)acetamide] | > 2.5 | 0.5 to 1 | ≥ 80 | > 1
COc1cc2ncc(-n3cc(NC(=O)Cc4c(F)cccc4Cl)cn3)n2cc1S(=O)(=O)C(C)(C)C [Example 159, N-(1-(6-(tert-butylsulfonyl)-7-methoxyimidazo[1,2-a]pyridin-3-yl)-1H-pyrazol-4-yl)-2-(2-chloro-6-fluorophenyl)acetamide] | 0.5 to 2.5 | < 0.2 | ≥ 80 | 0.1 to 1
COc1cc2ncc(-n3cc(NC(=O)Cc4ccccc4)cn3)n2cc1S(=O)(=O)C(C)(C)C [Example 160, N-(1-(6-(tert-butylsulfonyl)-7-methoxyimidazo[1,2-a]pyridin-3-yl)-1H-pyrazol-4-yl)-2-phenylacetamide] | > 2.5 | 0.2 to 0.5 | ≥ 80 | 0.1 to 1
COc1cc2ncc(-n3cc(NC(=O)[C@H](C)c4ccccc4)cn3)n2cc1S(=O)(=O)C(C)(C)C [Example 161, (R)-N-(1-(6-(tert-butylsulfonyl)-7-methoxyimidazo[1,2-a]pyridin-3-yl)-1H-pyrazol-4-yl)-2-phenylpropanamide] | > 2.5 | 0.2 to 0.5 | ≥ 80 | 0.1 to 1
COc1cc2ncc(-n3cc(NC(=O)[C@@H](C)c4ccccc4)cn3)n2cc1S(=O)(=O)C(C)(C)C [Example 162, (S)-N-(1-(6-(tert-butylsulfonyl)-7-methoxyimidazo[1,2-a]pyridin-3-yl)-1H-pyrazol-4-yl)-2-phenylpropanamide] | > 2.5 | 0.5 to 1 | ≥ 80 | > 1
COc1cc2ncc(-n3cc(NC(=O)C4CC4)cn3)n2cc1S(=O)(=O)C(C)(C)C [Example 163, N-(1-(6-(tert-butylsulfonyl)-7-methoxyimidazo[1,2-a]pyridin-3-yl)-1H-pyrazol-4-yl)cyclopropanecarboxamide] | > 2.5 | > 1 | ≤ 30 | > 1
COc1cc2ncc(-n3cc(NC(=O)C4CCCCC4)cn3)n2cc1S(=O)(=O)C(C)(C)C [Example 164, N-(1-(6-(tert-butylsulfonyl)-7-methoxyimidazo[1,2-a]pyridin-3-yl)-1H-pyrazol-4-yl)cyclohexanecarboxamide] | > 2.5 | > 1 | ≥ 80 | > 1
COc1cc2ncc(-n3cc(NC(=O)C4CCC(F)(F)CC4)cn3)n2cc1S(=O)(=O)C(C)(C)C [Example 165, N-(1-(6-(tert-butylsulfonyl)-7-methoxyimidazo[1,2-a]pyridin-3-yl)-1H-pyrazol-4-yl)-4,4-difluorocyclohexane-1-carboxamide] | > 2.5 | > 1 | 55 to 80 | > 1
COc1cc2ncc(-n3cc(NC(=O)[C@@H](c4ccccc4)N(C)C)cn3)n2cc1S(=O)(=O)C(C)(C)C [Example 166, (R)-N-(1-(6-(tert-butylsulfonyl)-7-methoxyimidazo[1,2-a]pyridin-3-yl)-1H-pyrazol-4-yl)-2-(dimethylamino)-2-phenylacetamide] | > 2.5 | > 1 | ≥ 80 | > 1
COc1cc2ncc(-n3cc(NC(=O)CC4CCCCC4)cn3)n2cc1S(=O)(=O)C(C)(C)C [Example 167, N-(1-(6-(tert-butylsulfonyl)-7-methoxyimidazo[1,2-a]pyridin-3-yl)-1H-pyrazol-4-yl)-2-cyclohexylacetamide] | > 2.5 | > 1 | ≥ 80 | > 1

— patent US20260091026A1, “METHODS OF TREATING INFLAMMATORY DISEASES” (INTERLINE THERAPEUTICS, INC., priority 2023, published 2026)
